From US11986478B2 (priority 2021, dated 2024)
Where two headings read alike, the source gives them in different places.

How the values were obtained:
human DUBs = assay type: biochemical
MERS-CoV PLpro [1] = target: T1, MERS-CoV PLpro (Middle East respiratory syndrome-related coronavirus, UniProt K9N7C7); assay type: biochemical
[2] = test system: cellular proteases (serine, cysteine and acid proteases) in Huh-7, Caco-2 and A549 lysates; assay type: biochemical, human
MERS-CoV [3] = assay type: cell-based
MERS-CoV PLpro [4] = target: T1, MERS-CoV PLpro; assay type: cell-based
[5] = test system: Huh7, VeroE6/TMPRSS2, Calu-3, Caco-2, BSC1 cells and human embryonic lung fibroblasts (HELF)
SARS-CoV-2 [6] = assay type: cell-based
SARS-CoV-2 PLpro [7] = target: T2, SARS-CoV-2 PLpro (Severe acute respiratory syndrome coronavirus 2, UniProt P0DTD1); assay type: biochemical
hCoV-229E = assay type: cell-based
Caco-2 and Huh-7 cells = assay type: cell-based, human
SARS-CoV-2 [8] = assay type: cell-based; remark: listed apart in the source
[9] = test system: SARS-CoV-2-infected Caco-2 cells; assay type: cell-based, human
MERS-CoV [10] = assay type: cell-based; remark: listed apart in the source
SARS-CoV-2 [11] = test system: SARS-CoV-2; parameters: species or system golden Syrian hamster; conditions: hamster, in vivo
[12] = test system: MERS-CoV-infected Huh-7 cells; assay type: cell-based, human
SARS-CoV-2 PLpro [13] = target: T2, SARS-CoV-2 PLpro; test: biochemical; assay type: biochemical
MERS-CoV [14] = assay type: cell-based; remark: listed apart in the source
SARS-CoV-2 PLpro [15] = target: T2, SARS-CoV-2 PLpro; assay type: biochemical; remark: listed apart in the source
SARS-CoV-2 [16] = test: microbe, parasite or virus in culture; assay type: cell-based; conditions: Severe acute respiratory syndrome coronavirus 2, read-out: EC50 anti-SARS-CoV-2 activity
hCoV-OC43 = assay type: cell-based
SARS-CoV-2 PLpro [17] = target: T2, SARS-CoV-2 PLpro; assay type: cell-based
MERS-CoV PLpro [18] = target: T1, MERS-CoV PLpro; assay type: biochemical; remark: listed apart in the source
[19] = read-out: IC50 against SARS-CoV-2-PLpro

T1 sequence (K9N7C7 1552-1823 limits assumed): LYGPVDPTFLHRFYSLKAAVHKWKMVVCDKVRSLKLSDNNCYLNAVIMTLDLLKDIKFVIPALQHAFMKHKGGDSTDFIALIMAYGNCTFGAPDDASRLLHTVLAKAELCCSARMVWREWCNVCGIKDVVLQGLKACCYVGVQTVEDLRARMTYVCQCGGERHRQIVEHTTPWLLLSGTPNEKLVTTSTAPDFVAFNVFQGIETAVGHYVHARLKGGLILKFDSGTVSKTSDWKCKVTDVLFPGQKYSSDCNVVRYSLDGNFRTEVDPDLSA

Question: Which results are given for `O=C(Nc1ccccc1Cl)c1sc(=S)n2c1[nH]c(=O)c1ccccc12` [Compound F0213]?
Answer: modification of cellular DUBs by HA-Ub-VS (human DUBs): no change was noted in the immunoblot pattern; cleavage of ISG15-AMC and Ubiquitin-AMC (MERS-CoV PLpro [1]): inhibited cleavage; cellular protease activity [2]: not affected; antiviral EC50 against MERS-CoV compared with SARS-CoV-2 (MERS-CoV [3]): lower antiviral EC50 against MERS-CoV than SARS-CoV-2; rescue of IFN-β, IRF3 and NF-κB reporter gene expression (MERS-CoV PLpro [4]): rescued the genes expression in a dose-dependent manner; cytotoxicity in the matching cell lines [5]: negligible cytotoxicity; inhibition of virus replication by NP antigen immunofluorescence (SARS-CoV-2 [6]): significant inhibition of virus replication; modification of PLpro by HA-Ub-VS (SARS-CoV-2 PLpro [7]): eliminated in the presence of GRL0617 but not F0213; decrease of viral yields (hCoV-229E): about 2 log 10; cellular antiviral signaling (Caco-2 and Huh-7 cells): potentiated the cellular antiviral signaling; reduction of SARS-CoV-2 viral yields (SARS-CoV-2 [8]): more than 1 log 10; expression of IFN-responsive genes ISG15 and PKR [9]: significantly enhanced; inhibition of virus replication by NP antigen immunofluorescence (MERS-CoV [10]): significant inhibition of virus replication; SARS-CoV-2 N expression in lung by immunofluorescence (SARS-CoV-2 [11]): reduced N expression; SARS-CoV-2 genome copies in the lungs (SARS-CoV-2 [11]): suppression; lung damage by H & E staining (SARS-CoV-2 [11]): improved morphology and milder infiltrations; decrease of virus plaque-forming units in lung tissues (SARS-CoV-2 [11]; 5 mg/kg/day): 1-2 log 10; efficacy by route on lung genome copies (SARS-CoV-2 [11]; 5 mg/kg/day): superior efficacy via PO route than that of IP injection; transcription levels of ISG15 and PKR [12]: reduced; IC50 (SARS-CoV-2 PLpro [13]; [19]): 7.4 µM; decrease of viral yields (MERS-CoV [14]): about 3 log 10; cleavage of ISG15-AMC and Ubiquitin-AMC (SARS-CoV-2 PLpro [15]): inhibited cleavage; EC50 (SARS-CoV-2 [16]): 4.5 µM; decrease of viral yields (hCoV-OC43): around 1.5 log 10; rescue of IFN-β, IRF3 and NF-κB reporter gene expression (SARS-CoV-2 PLpro [17]): rescued the genes expression in a dose-dependent manner

Question: How did the IC50 (SARS-CoV-2 PLpro [13]; [19]) turn out when `Cc1cccc(NC(=O)c2sc(=S)n3c2[nH]c(=O)c2cc4c(cc23)OCO4)c1` [Compound F0393] was run?
Answer: 15.8 µM

Question: GRL0617 [reference compound] was tested. Which “inhibition of virus replication by NP antigen immunofluorescence” value (SARS-CoV-2 [6]) did it give?
Answer: marginal virus suppression

Question: And the “modification of PLpro by HA-Ub-VS” value (SARS-CoV-2 PLpro [7])?
Answer: almost completely eliminated

Question: And the “inhibition of virus replication by NP antigen immunofluorescence” value (MERS-CoV [10])?
Answer: marginal virus suppression

Question: What about the “effect on MERS-CoV-PLpro activity” value (MERS-CoV PLpro [18]) of the same compound?
Answer: without impairing the MERS-CoV-PLpro activity

Question: `COc1cc2c(=O)[nH]c3c(C(=O)Nc4cc(Cl)ccc4C)sc(=S)n3c2cc1OC` [Compound F0326] was tested. Which IC50 (SARS-CoV-2 PLpro [13]) did it give?
Answer: 8.2 µM

Question: And the EC50 (SARS-CoV-2 [16])?
Answer: 7.6 µM

Question: For `CCN1C(=O)C=CC1=O` [NEM, N-ethyl-maleimide, reference compound], which “modification of cellular DUBs by HA-Ub-VS” value (human DUBs) is on record?
Answer: diminished the modification of HA-Ub-VS on DUBs
